{
  "source": "ChEMBL document CHEMBL1146805",
  "about": "“Carbonic anhydrase inhibitors. Inhibition of cytosolic isozyme XIII with aromatic and heterocyclic sulfonamides: a novel target for the drug design” (Bioorg Med Chem Lett, 2004)",
  "data": [
    {"target": "Carbonic anhydrase 13 (Mus musculus, UniProt Q9D6N1)", "sequence (Q9D6N1 whole entry)": "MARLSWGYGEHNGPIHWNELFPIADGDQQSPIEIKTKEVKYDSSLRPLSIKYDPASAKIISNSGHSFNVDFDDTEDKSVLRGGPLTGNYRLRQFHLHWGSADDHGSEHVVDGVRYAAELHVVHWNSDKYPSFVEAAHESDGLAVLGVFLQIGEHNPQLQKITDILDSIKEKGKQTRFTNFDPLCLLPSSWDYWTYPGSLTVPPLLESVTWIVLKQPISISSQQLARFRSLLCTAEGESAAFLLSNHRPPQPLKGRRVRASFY", "units": {"Ki": "nM"}, "description": "Inhibitory activity against murine carbonic anhydrase XIII (mCA XIII) by using CO2 hydrase assay method", "values": [
      {"smiles": "NCCc1ccc(S(N)(=O)=O)cc1", "Ki": 43},
      {"smiles": "Nc1ccc(S(N)(=O)=O)cc1F", "Ki": 50},
      {"smiles": "Nc1ccc(S(N)(=O)=O)cc1", "note": "[SULFANILAMIDE]", "Ki": 32},
      {"smiles": "Nc1ccc(S(=O)(=O)Nc2ccc(S(N)(=O)=O)cc2)cc1", "Ki": 2.4},
      {"smiles": "Nc1ccccc1S(N)(=O)=O", "Ki": 43},
      {"smiles": "Nc1ccc(S(=O)(=O)NCc2ccc(S(N)(=O)=O)cc2)cc1", "Ki": 1.9},
      {"smiles": "NCc1ccc(S(N)(=O)=O)cc1", "note": "[MAFENIDE]", "Ki": 41},
      {"smiles": "Nc1ccc(S(N)(=O)=O)cc1Br", "Ki": 54},
      {"smiles": "Nc1ccc(S(N)(=O)=O)cc1Cl", "Ki": 56},
      {"smiles": "Nc1ccc(S(=O)(=O)NCCc2ccc(S(N)(=O)=O)cc2)cc1", "Ki": 1.3},
      {"smiles": "Nc1ccc(S(N)(=O)=O)cc1I", "Ki": 50}
    ]}
  ]
}
